In PMC539285, “Anti-Plasmodium activity of ceramide analogs” (Malaria Journal, 2004) one finds IC90 and IC50 data, which are given here for 20 compounds.

The subject of the first assay is chloroquine-resistant strain FcB1 of P. falciparum. The assay is described as follows: Anti-Plasmodium activity, [3H]hypoxanthine microdilution on asynchronous cultures. The class given is cell-based, Plasmodium falciparum. The note with it: Plasmodium falciparum, 48 h; Figure 3, series B; strain FcB1; 90% growth inhibition; read-out: CI90 (the source's name). As to the method: P. falciparum strains (FcB1/Colombia, K1/Thailand, F32/Tanzania, W2/Indochina) were maintained in continuous culture on human erythrocytes in RPMI medium containing 7% (v/v) heat-inactivated human serum under an atmosphere of 3% CO2, 6% O2, 91% N2, at 37°C, as described by Trager and Jensen. Parasite synchronization was performed successively by treatment with 5% (w/v) sorbitol and by concentration in gelatin solution as previously described.
Drug susceptibility assays were performed using a modification of the semi automated microdilution technique of Desjardins et al.. Stock solutions of test compounds were prepared in DMSO. Drug solutions were serially diluted twofold with 100 μl culture medium in 96-well plates. Asynchronous parasite cultures (100 μl, 1 % parasitemia and 1 % final hematocrite) were added to each well and incubated for 24 hours at 37°C prior to the addition of 0.5 μCi of [^3H] hypoxanthine (Amersham, France, 1 to 5 Ci.mmol/ml) per well. After a further incubation of 24 hour, plates were frozen and thawed. Cell lysates were then collected onto glass-filter papers and counted in a liquid scintillation spectrometer. The growth inhibition for each drug concentration was determined by comparison of the radioactivity incorporated in the treated culture with that in the control culture (having the same final % of DMSO) maintained on the same plate. The concentration causing 50% growth inhibition (IC50) and 90% growth (IC90) were obtained from the drug concentration-response curve and the results were expressed as the means ± the standard deviations determined from several independent experiments.
As to `CCCCNC(=S)N[C@H](CO)[C@H](O)c1ccc([N+](=O)[O-])cc1` [AD-2216], the IC90 came out at 13.9 ± 7.1 µM. As for `CC(C)(C)NC(=S)N[C@H](CO)[C@H](O)c1ccc([N+](=O)[O-])cc1` [AD-2217], the IC90 was determined as 0.958 ± 0.013 µM. Take `CCCCN[C@H](CO)[C@H](O)c1ccc([N+](=O)[O-])cc1` [AD-2493]: the IC90 was 5.1 ± 0.15 µM. Same read-out and setting: next, `CCCCCCCCCCCCN[C@H](CO)[C@H](O)c1ccc([N+](=O)[O-])cc1` [AD-2617]: 0.304 ± 0.007 µM; `CCCCCCCCCCCCNc1ccc([C@@H](O)[C@@H](CO)NCCCCCCCCCCCC)cc1` [AD-2653]: 5.5 µM; `CCCCNc1ccc([C@@H](O)[C@@H](CO)NCCCC)cc1` [AD-2664]: 2.4 ± 0.7 µM. On to `CCCCCCCCCCCCCCN[C@H](CO)[C@H](O)c1ccc(NCC)cc1` [AD-2677], for which the IC90 came out at 2.7 µM.

As to `CCCCCCCCCCCCCCN[C@H](CO)[C@H](O)c1ccc(NC(C)=O)cc1` [AD-2678], the IC90 turned out to be 10.6 µM. As to `CCCCCCCCCCCCCCN[C@H](CO)[C@H](O)c1ccc(NC(=O)CCCCC)cc1` [AD-2680], the IC90 was 5.5 µM.

The assay is the same for the next values; noted with them: Plasmodium falciparum, FCB1.
`CCN(CC)CCCC(C)Nc1ccnc2cc(Cl)ccc12` (centres unmarked) [chloroquine, reference compound] registered an IC50 of 0.115 ± 0.025 µM.

The same assay, now with this note: Plasmodium falciparum, FCB1; Figure 4, selected derivatives; read-out: IC50.
On to `CCCCCCCCCCCCCCN[C@H](C)[C@H](O)c1ccccc1` [AD-2724], for which the IC50 was 0.0334 ± 0.0031 µM.

The same assay, now with this note: Plasmodium falciparum; Figure 2, series A (amide linkage); strain FcB1; read-out: CI50 (the source's name).
Regarding `CCCC(=O)N[C@@H](CO)[C@@H](O)c1ccc([N+](=O)[O-])cc1` [AD2549], the IC50 was greater than 100 µM. Same read-out and setting: the figure for `O=C(CCCO)N[C@H](CO)[C@H](O)c1ccc([N+](=O)[O-])cc1` [AD2589] is greater than 100 µM; for `CC(=O)N[C@H](CO)[C@H](O)c1ccc([N+](=O)[O-])cc1` [AD2590] it is greater than 100 µM; for `CCCCCCCCCCCCCCCC(=O)Nc1ccc([C@@H](O)[C@@H](CO)NC(=O)CCC)cc1` [AD2605] it is greater than 100 µM. `CCCC(=O)N[C@H](CO)[C@H](O)c1ccc(NC(=O)CCC(=O)O)cc1` [AD2606]: the IC50 was greater than 100 µM.

With `CCCC(=O)Nc1ccc([C@@H](O)[C@@H](CO)NC(=O)CCC)cc1` [AD2607], the IC50 was greater than 100 µM.

The same assay, now with this note: Plasmodium falciparum; Figure 3, series B (methylene or thiourea linkage); strain FcB1; read-out: CI50 (the source's name).
As to `CCN[C@H](CO)[C@H](O)c1ccc([N+](=O)[O-])cc1` [AD-2212], the IC50 was greater than 33 µM. Regarding `CCNC(=S)N[C@H](CO)[C@H](O)c1ccc([N+](=O)[O-])cc1` [AD-2215], the IC50 is greater than 50 µM. `CCCCNC(=S)N[C@H](CO)[C@H](O)c1ccc([N+](=O)[O-])cc1` [AD-2216]: the IC50 stood at 1.13 ± 0.24 µM. As to `CC(C)(C)NC(=S)N[C@H](CO)[C@H](O)c1ccc([N+](=O)[O-])cc1` [AD-2217], the IC50 came out at 0.574 ± 0.05 µM. For `CCCCN[C@H](CO)[C@H](O)c1ccc([N+](=O)[O-])cc1` [AD-2493], the IC50 worked out at 0.78 ± 0.07 µM. For the compound `CCCCCCCCCCCCCCCCCCCCN[C@H](CO)[C@H](O)c1ccc([N+](=O)[O-])cc1` [AD-2554], the IC50 was greater than 200 µM. In the case of `CCCCCCCCCCCCN[C@H](CO)[C@H](O)c1ccc([N+](=O)[O-])cc1` [AD-2617], the IC50 was 0.0171 ± 0.0053 µM. Take `CCCCCCCCCCCCNc1ccc([C@@H](O)[C@@H](CO)NCCCCCCCCCCCC)cc1` [AD-2653]: the IC50 is 3.25 µM. In the case of `CCCCNc1ccc([C@@H](O)[C@@H](CO)NCCCC)cc1` [AD-2664], the IC50 was found to be 1.3 ± 0.2 µM.

Consider `CCCCCCCCCCCCCCN[C@H](CO)[C@H](O)c1ccc(NCC)cc1` [AD-2677], for which the IC50 was 1.48 µM. With `CCCCCCCCCCCCCCN[C@H](CO)[C@H](O)c1ccc(NC(C)=O)cc1` [AD-2678], the IC50 amounted to 5.8 µM. As to `CCCCCCCCCCCCCCN[C@H](CO)[C@H](O)c1ccc(NC(=O)CCCCC)cc1` [AD-2680], the IC50 turned out to be 3.3 µM.
